Assay results from patent publication US10294202B2, “Pyrrolidinones as herbicides” (FMC Corporation, priority 2013, dated 2019).

Tests used:
Assay in all cases: Test C pre-/postemergence herbicide test
[1] = tested on: bromegrass, downy; type: in vivo, Bromus tectorum
Method in brief: (§1)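 Plants grown and held in a greenhouse for 13 to 15 days post-spray, then rated 0–100 by visual comparison with controls. Pre treatments targeted seeds in loam and sand; post treatments targeted 1- to 4-leaf plants in peat-based potting medium.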

[2] = tested on: cocklebur; type: in vivo, Xanthium strumarium
Text: (§2) Seeds of plant species selected from blackgrass (Alopecurus myosuroides), ryegrass, Italian (Italian ryegrass, Lolium multiflorum), wheat (winter wheat, Triticum aestivum), galium (catchweed bedstraw, Galium aparine), corn (Zea mays), crabgrass, large (large crabgrass, Digitaria sanguinalis), foxtail, giant (giant foxtail, Setaria faberii), johnsongrass (Sorghum halepense), lambsquarters (Chenopodium album), morningglory (Ipomoea coccinea), nutsedge, yellow (yellow nutsedge, Cyperus esculentus), pigweed (Amaranthus retroflexus), ragweed (common ragweed, Ambrosia elatior), soybean (Glycine max), barnyardgrass (Echinochloa crus-galli), oilseed rape (Brassica napus), waterhemp (common waterhemp, Amaranthus rudis), kochia (Kochia scoparia), oat, wild (wild oat, Avena fatua), surinam grass (Brachiaria decumbens), foxtail, green (green foxtail, Setaria viridis), goosegrass (Eleusine indica), bromegrass, downy (downy bromegrass, Bromus tectorum), nightshade (eastern black nightshade, Solanum ptycanthum), cocklebur (common cocklebur, Xanthium strumarium), cupgrass, woolly (woolly cupgrass, Eriochloa villosa), bermudagrass (Cynodon dactylon), sunflower, (common oilseed sunflower, Helianthus annuus), Russian thistle (Salsola kali) and velvetleaf (Abutilon theophrasti) were planted into a blend of loam soil and sand and treated preemergence with test chemicals formulated in a non-phytotoxic solvent mixture which included a surfactant. At the same time, plants selected from these crop and weed species and also barley (winter barley, Hordeum vulgare), […]), chickweed (common chickweed, Stellaria media), deadnettle (henbit deadnettle, Lamium amplexicaule), and canarygrass (littleseed canarygrass, Phalaris minor) were planted in pots containing Redi-Earth® planting medium (Scotts Company, 14111 Scottslawn Road, Marysville, Ohio 43041) comprising spaghnum peat moss, vermiculite, wetting agent and starter nutrients and treated with postemergence applications of test chemicals formulated in the same manner. Plants ranged in height from 2 to 18 cm (1- to 4-leaf stage) for postemergence treatments. Treated plants and controls were maintained in a greenhouse for 13 to 15 days, after which time all species were compared to controls and visually evaluated. Plant response ratings, summarized in Table C, are based on a scale of 0 to 100 where 0 is no effect and 100 is complete control. A dash (-) response means no test result.

[3] = tested on: cupgrass, woolly; type: in vivo, Eriochloa villosa
Method in brief: as §1

[4] = tested on: goosegrass; type: in vivo, Eleusine indica
Method in brief: as §1

[5] = tested on: Russian thistle; type: in vivo, Salsola kali; conditions: Preemergence
Method in brief: as §1

[6] = tested on: nightshade; type: in vivo, Solanum ptycanthum; conditions: Preemergence
Text: as §2

[7] = tested on: sunflower; type: in vivo, Helianthus annuus; conditions: Preemergence
Text: as §2

[8] = tested on: foxtail, green; type: in vivo, Setaria viridis
Text: as §2

[9] = tested on: surinam grass; type: in vivo, Brachiaria decumbens
Text: as §2

[10] = tested on: bermudagrass; type: in vivo, Cynodon dactylon
Text: as §2

[11] = Postemergence, 31 g ai/ha, scale 0 (no effect) to 100 (complete control)
[12] = Postemergence, 62 g ai/ha, scale 0 to 100 (0 no effect, 100 complete control)
[13] = Postemergence, 125 g ai/ha, scale 0 to 100 (0 no effect, 100 complete control)
[14] = Postemergence, 250 g ai/ha, scale 0 to 100 (0 no effect, 100 complete control)
[15] = Preemergence, 31 g ai/ha, scale 0 to 100, 0 is no effect and 100 is complete control
[16] = Preemergence, 62 g ai/ha, scale 0 to 100
[17] = Preemergence, 125 g ai/ha, scale 0 to 100 (0 no effect, 100 complete control)
[18] = 31 g ai/ha, scale 0 to 100, 0 is no effect and 100 is complete control
[19] = 125 g ai/ha, scale 0 to 100 (0 no effect, 100 complete control)
[20] = Preemergence, 31 g ai/ha, scale 0 to 100 (0 no effect, 100 complete control)
[21] = Preemergence, 250 g ai/ha, scale 0 to 100 (0 no effect, 100 complete control)

O=C1NCC(c2ccccc2)C1C(=O)Nc1ccccc1F (racemic) [Compound 81]
Plant response rating, Bromegrass, Downy [1, 11]: 0 | Plant response rating, Bromegrass, Downy [1, 12]: 0 | Plant response rating, Bromegrass, Downy [1, 13]: 0 | Plant response rating, Bromegrass, Downy [1, 14]: 7 | Bromegrass, Downy plant response rating [1, 15]: 0 | Plant response rating, Bromegrass, Downy [1, 16]: 0 | Plant response rating, Bromegrass, Downy [1, 17]: 0 | Plant response rating (scale of 0 to 100), Bromegrass, Downy ([1]; Preemergence, 250 g ai/ha): 0 | Plant response rating, Cocklebur [2, 11]: 0 | Plant response rating, Cocklebur [2, 12]: 0 | Plant response rating, Cocklebur [2, 13]: 0 | Plant response rating, Cocklebur [2, 14]: 0 | Cocklebur plant response rating [2, 15]: 0 | Plant response rating, Cocklebur [2, 16]: 0 | Plant response rating, Cocklebur [2, 17]: 0 | Plant response rating (scale of 0 to 100), Cocklebur ([2]; Preemergence, 250 g ai/ha): 0 | Plant response rating, Cupgrass, Woolly [3, 11]: 0 | Plant response rating, Cupgrass, Woolly [3, 12]: 0 | Plant response rating, Cupgrass, Woolly [3, 13]: 0 | Plant response rating, Cupgrass, Woolly [3, 14]: 0 | Cupgrass, Woolly plant response rating [3, 15]: 0 | Plant response rating, Cupgrass, Woolly [3, 16]: 32 | Plant response rating, Cupgrass, Woolly [3, 17]: 67 | Plant response rating (scale of 0 to 100), Cupgrass, Woolly ([3]; Preemergence, 250 g ai/ha): 82 | Plant response rating, Goosegrass [4, 11]: 0 | Plant response rating, Goosegrass [4, 12]: 0 | Plant response rating, Goosegrass [4, 13]: 0 | Plant response rating, Goosegrass [4, 14]: 0 | Goosegrass plant response rating [4, 15]: 0 | Plant response rating, Goosegrass [4, 16]: 0 | Plant response rating, Goosegrass [4, 17]: 0 | Plant response rating (scale of 0 to 100), Goosegrass ([4]; Preemergence, 250 g ai/ha): 0 | Russian Thistle plant response rating [5, 18]: 0 | Plant response rating, Russian Thistle ([5]; 62 g ai/ha, scale 0 to 100): 0 | Plant response rating, Russian Thistle [5, 19]: 0 | Plant response rating (scale of 0 to 100), Russian Thistle ([5]; 250 g ai/ha): 0 | Nightshade plant response rating [6, 18]: 0 | Plant response rating, Nightshade ([6]; 62 g ai/ha, scale 0 to 100): 0 | Plant response rating, Nightshade [6, 19]: 0 | Plant response rating (scale of 0 to 100), Nightshade ([6]; 250 g ai/ha): 0 | Sunflower plant response rating [7, 18]: 0 | Plant response rating Sunflower ([7]; 62 g ai/ha, scale 0 to 100): 0 | Plant response rating Sunflower [7, 19]: 0 | Plant response rating (scale of 0 to 100), Sunflower ([7]; 250 g ai/ha): 0 | Plant response rating, Foxtail, Green [8, 11]: 5 | Plant response rating, Foxtail, Green [8, 12]: 5 | Plant response rating, Foxtail, Green [8, 13]: 20 | Plant response rating, Foxtail, Green [8, 14]: 48 | Foxtail, Green plant response rating [8, 15]: 20 | Plant response rating, Foxtail, Green [8, 16]: 67 | Plant response rating, Foxtail, Green [8, 17]: 80 | Plant response rating (scale of 0 to 100), Foxtail, Green ([8]; Preemergence, 250 g ai/ha): 90 | Plant response rating, Surinam Grass [9, 11]: 0 | Plant response rating, Surinam Grass [9, 12]: 0 | Plant response rating, Surinam Grass [9, 13]: 0 | Plant response rating, Surinam Grass [9, 14]: 0 | Surinam Grass plant response rating [9, 15]: 0 | Plant response rating, Surinam Grass [9, 16]: 53 | Plant response rating, Surinam Grass [9, 17]: 77 | Plant response rating (scale of 0 to 100), Surinam Grass ([9]; Preemergence, 250 g ai/ha): 90 | Plant response rating, Bermudagrass [10, 11]: 0 | Plant response rating, Bermudagrass [10, 12]: 0 | Plant response rating, Bermudagrass [10, 13]: 0 | Plant response rating, Bermudagrass [10, 14]: 0 | Bermudagrass plant response rating [10, 15]: 0 | Plant response rating, Bermudagrass [10, 16]: 0 | Plant response rating, Bermudagrass [10, 17]: 0 | Plant response rating (scale of 0 to 100), Bermudagrass ([10]; Preemergence, 250 g ai/ha): 0

O=C1NCC(c2ccc(F)c(Cl)c2)C1C(=O)Nc1cccc(F)c1F (centres unmarked) [Compound 59]
Bromegrass, Downy plant response rating [1, 20]: 0 | Plant response rating, Bromegrass, Downy [1, 16]: 0 | Plant response rating, Bromegrass, Downy [1, 17]: 0 | Plant response rating, Bromegrass, Downy [1, 21]: 20 | Plant response rating, Cocklebur [2, 16]: 0 | Cupgrass, Woolly plant response rating [3, 20]: 40 | Plant response rating, Cupgrass, Woolly [3, 16]: 70 | Plant response rating, Cupgrass, Woolly [3, 17]: 80 | Plant response rating, Cupgrass, Woolly [3, 21]: 80 | Goosegrass plant response rating [4, 20]: 15 | Plant response rating, Goosegrass [4, 16]: 25 | Plant response rating, Goosegrass [4, 17]: 35 | Plant response rating, Russian Thistle ([5]; 62 g ai/ha, scale 0 to 100): 0 | Plant response rating, Russian Thistle [5, 19]: 0 | Plant response rating, Nightshade [6, 19]: 25 | Plant response rating Sunflower ([7]; 62 g ai/ha, scale 0 to 100): 5 | Plant response rating Sunflower [7, 19]: 15 | Foxtail, Green plant response rating [8, 20]: 85 | Plant response rating, Foxtail, Green [8, 16]: 90 | Plant response rating, Foxtail, Green [8, 17]: 90 | Plant response rating, Foxtail, Green [8, 21]: 98 | Plant response rating, Surinam Grass [9, 16]: 35 | Plant response rating, Surinam Grass [9, 17]: 60 | Bermudagrass plant response rating [10, 20]: 20 | Plant response rating, Bermudagrass [10, 16]: 20 | Plant response rating, Bermudagrass [10, 17]: 40 | Plant response rating, Bermudagrass [10, 21]: 50
